Article PMC10746543, “Design principles for cyclin K molecular glue degraders” (Nature Chemical Biology, 2023)
“And” between values parts separate entries of the source, which are not always exact repeats. Equal entries are not always repeated.

What was measured:
CDK13 = target: T1, CDK13 (Homo sapiens, UniProt Q14004+Q16531); assay: Label-free quantitative mass spectrometry in MDA-MB-231 cells, CDK13; format: cell-based
T1 construct: endogenous in cells; host or cells: MDA-MB-231
Protocol: MDA-MB-231 cells were treated with DMSO or a cyclin K degrader compound at 1 µM for 5 h. Cells were collected by centrifugation and washed with phosphate-buffered saline before snap freezing in liquid nitrogen. Cells were lysed by addition of lysis buffer (8 M urea, 50 mM NaCl, 50 mM 4-(2-hydroxyethyl)-1-piperazineethanesulfonic acid (EPPS) pH 8.5, and protease and phosphatase inhibitors) and homogenization by bead beating (BioSpec) for three repeats of 30 s at 2,400 rpm. Bradford assay was used to determine the final protein concentration in the clarified cell lysate. Then 50 µg of protein for each sample was reduced, alkylated and precipitated using methanol/chloroform as previously described, and the resulting washed precipitated protein was allowed to air dry. Precipitated protein was resuspended in 4 M urea, 50 mM HEPES pH 7.4, followed by dilution to 1 M urea with the addition of 200 mM EPPS, pH 8. Proteins were first digested with LysC (1:50; enzyme:protein) for 12 h at room temperature. The LysC digestion was diluted to 0.5 M urea with 200 mM EPPS pH 8 followed by digestion with trypsin (1:50; enzyme:protein) for 6 h at 37 °C. Sample digests were acidified with formic acid to a pH of 2–3 before desalting using C18 solid phase extraction plates (SOLA, Thermo Fisher Scientific). Desalted peptides were dried in a vacuum-centrifuged and reconstituted in 0.1% formic acid for liquid chromatography–mass spectrometry analysis.
Data were collected using a TimsTOF Pro2 (Bruker Daltonics) coupled to a nanoElute LC pump (Bruker Daltonics) via a CaptiveSpray nano-electrospray source. Peptides were separated on a reversed-phase C18 column (25 cm × 75 µm inner diameter, […], IonOpticks) containing an integrated captive spray emitter. Peptides were separated using a 50 min gradient of 2–30% buffer B (acetonitrile in 0.1% formic acid) with a flow rate of 250 nl min^−1 and column temperature maintained at 50 °C.
Data-dependent acquisition (DDA) was performed in Parallel Accumulation-Serial Fragmentation (PASEF) mode to determine effective ion mobility windows for downstream diaPASEF data collection. The ddaPASEF parameters included: 100% duty cycle using accumulation and ramp times of 50 ms each, one Trapped Ion Mobility Spectrometry(TIMS)-MS scan and ten PASEF ramps per acquisition cycle. The TIMS-MS survey scan was acquired between 100 m/z and 1,700 m/z and 1/K0 of 0.7–1.3 V s cm^−2. Precursors with one to five charges were selected, and those that reached an intensity threshold of 20,000 arbitrary units were actively excluded for 0.4 min. The quadrupole isolation width was set to 2 m/z for m/z < 700 and 3 m/z for m/z > 800, with the m/z between 700 m/z and 800 m/z being interpolated linearly. […] To perform diaPASEF, the precursor distribution in the DDA m/z-ion mobility plane was used to design an acquisition scheme for data-independent acquisition (DIA) data collection that included two windows in each 50 ms diaPASEF scan. Data were acquired using 16 of these 25 Da precursor double window scans (creating 32 windows) that covered the diagonal scan line for doubly and triply charged precursors, with singly charged precursors able to be excluded by their position in the m/z-ion mobility plane. These precursor isolation windows were defined between 400 m/z and 1,200 m/z and 1/K0 of 0.7–1.3 V s cm^−2.
DirectDIA mode includes first extracting the DIA data into a collection of MS2 spectra which are searched using Spectronaut’s Pulsar search engine. The search results are then used to generate a spectral library which is then employed for the targeted analysis of the DIA data. MS/MS spectra were searched against a Swissprot human database (January 2021). Database search criteria largely followed the default settings for directDIA including: tryptic with two missed cleavages, fixed carbomidomethylation of cysteine, and variable oxidation of methionine and acetylation of protein N-termini and precursor Q-value (FDR) cut-off of 0.01. […]

CDK12–cyclin K and DDB1 = target: T2, CDK12–cyclin K and DDB1 (Homo sapiens, UniProt Q16531+Q9NYV4, K965R); assay: TR-FRET ternary complex formation assay (compound titration); format: binding
T2 construct: His6–CDK12 (a.a. 713–1,052); full-length or beta-propeller B domain deletion (ΔBPB: a.a. 396–705 deleted) constructs of His6–DDB1ΔBPB, StrepII–Avi–DDB1, or His6–Spy–DDB1; made in house; host or cells: Trichoplusia ni High Five insect cells (baculovirus)
Method in brief: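 Delayed (70 μs) time-resolved read; FRET computed as 520 nm over 490 nm emission.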

CDK12–cyclin K = CDK12–cyclin K (Homo sapiens, UniProt Q9NYV4); assay: Lanthascreen kinase binding assay, CDK12; settings: duplicates
Protocol: Lanthascreen experiments were performed using commercially available reagents (Thermo Fisher) and according to the manufacturer’s instructions.

T1 sequence (Q14004 whole entry): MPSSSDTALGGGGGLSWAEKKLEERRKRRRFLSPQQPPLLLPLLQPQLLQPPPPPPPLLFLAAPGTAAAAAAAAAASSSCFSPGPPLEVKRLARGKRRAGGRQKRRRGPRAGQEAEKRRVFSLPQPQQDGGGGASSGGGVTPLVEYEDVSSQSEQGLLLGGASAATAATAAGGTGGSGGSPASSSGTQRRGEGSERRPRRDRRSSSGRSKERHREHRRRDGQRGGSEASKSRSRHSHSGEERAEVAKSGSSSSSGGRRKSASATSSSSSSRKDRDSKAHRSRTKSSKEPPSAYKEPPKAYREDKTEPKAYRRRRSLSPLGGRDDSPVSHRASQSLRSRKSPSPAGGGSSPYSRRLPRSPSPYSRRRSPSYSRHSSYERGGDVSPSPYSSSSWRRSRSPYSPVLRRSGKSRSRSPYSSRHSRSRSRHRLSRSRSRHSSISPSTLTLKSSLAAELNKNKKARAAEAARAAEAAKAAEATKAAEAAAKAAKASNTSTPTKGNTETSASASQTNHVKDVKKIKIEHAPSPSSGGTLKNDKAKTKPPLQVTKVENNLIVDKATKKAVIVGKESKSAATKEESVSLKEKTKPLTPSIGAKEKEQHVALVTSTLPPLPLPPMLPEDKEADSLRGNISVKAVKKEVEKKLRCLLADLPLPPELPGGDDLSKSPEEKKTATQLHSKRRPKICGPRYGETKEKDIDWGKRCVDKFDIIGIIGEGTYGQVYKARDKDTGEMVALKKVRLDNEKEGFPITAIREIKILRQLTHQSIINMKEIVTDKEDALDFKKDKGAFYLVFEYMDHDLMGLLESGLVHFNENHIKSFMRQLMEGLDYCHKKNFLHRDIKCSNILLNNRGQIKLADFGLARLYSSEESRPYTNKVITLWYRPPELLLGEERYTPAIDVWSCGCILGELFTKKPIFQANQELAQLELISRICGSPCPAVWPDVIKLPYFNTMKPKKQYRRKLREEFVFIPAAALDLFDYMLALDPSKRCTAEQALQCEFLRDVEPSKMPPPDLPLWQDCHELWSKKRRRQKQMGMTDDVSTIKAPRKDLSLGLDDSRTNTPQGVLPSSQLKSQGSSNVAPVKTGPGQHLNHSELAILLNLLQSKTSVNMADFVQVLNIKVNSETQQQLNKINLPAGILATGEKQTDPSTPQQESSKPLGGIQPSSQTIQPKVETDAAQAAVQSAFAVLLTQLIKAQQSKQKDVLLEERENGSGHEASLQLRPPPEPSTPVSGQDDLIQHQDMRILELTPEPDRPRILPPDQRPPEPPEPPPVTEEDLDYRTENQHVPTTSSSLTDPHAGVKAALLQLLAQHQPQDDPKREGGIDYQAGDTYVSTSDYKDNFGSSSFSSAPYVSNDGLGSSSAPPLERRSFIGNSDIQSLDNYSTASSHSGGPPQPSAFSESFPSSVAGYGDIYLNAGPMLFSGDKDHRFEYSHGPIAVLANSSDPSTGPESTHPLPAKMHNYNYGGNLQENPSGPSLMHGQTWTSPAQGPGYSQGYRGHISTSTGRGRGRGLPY
T1 sequence (O75909 whole entry partner): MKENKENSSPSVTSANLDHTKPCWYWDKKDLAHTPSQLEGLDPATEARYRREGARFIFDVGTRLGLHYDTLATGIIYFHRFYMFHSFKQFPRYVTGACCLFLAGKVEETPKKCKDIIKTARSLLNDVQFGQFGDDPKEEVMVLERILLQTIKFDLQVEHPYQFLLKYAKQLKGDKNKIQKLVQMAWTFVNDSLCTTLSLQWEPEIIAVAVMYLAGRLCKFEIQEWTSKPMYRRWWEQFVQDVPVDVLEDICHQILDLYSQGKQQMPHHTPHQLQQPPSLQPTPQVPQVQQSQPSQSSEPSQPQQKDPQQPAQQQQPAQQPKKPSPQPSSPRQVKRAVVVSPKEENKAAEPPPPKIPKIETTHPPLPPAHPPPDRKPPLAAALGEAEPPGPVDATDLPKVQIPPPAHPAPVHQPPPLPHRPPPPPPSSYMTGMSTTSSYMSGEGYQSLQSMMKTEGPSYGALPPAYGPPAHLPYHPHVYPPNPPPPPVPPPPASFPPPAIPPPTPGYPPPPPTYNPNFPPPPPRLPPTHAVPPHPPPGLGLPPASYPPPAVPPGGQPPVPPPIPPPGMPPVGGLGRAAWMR
T1 sequence (Q16531 2-1140 limits assumed): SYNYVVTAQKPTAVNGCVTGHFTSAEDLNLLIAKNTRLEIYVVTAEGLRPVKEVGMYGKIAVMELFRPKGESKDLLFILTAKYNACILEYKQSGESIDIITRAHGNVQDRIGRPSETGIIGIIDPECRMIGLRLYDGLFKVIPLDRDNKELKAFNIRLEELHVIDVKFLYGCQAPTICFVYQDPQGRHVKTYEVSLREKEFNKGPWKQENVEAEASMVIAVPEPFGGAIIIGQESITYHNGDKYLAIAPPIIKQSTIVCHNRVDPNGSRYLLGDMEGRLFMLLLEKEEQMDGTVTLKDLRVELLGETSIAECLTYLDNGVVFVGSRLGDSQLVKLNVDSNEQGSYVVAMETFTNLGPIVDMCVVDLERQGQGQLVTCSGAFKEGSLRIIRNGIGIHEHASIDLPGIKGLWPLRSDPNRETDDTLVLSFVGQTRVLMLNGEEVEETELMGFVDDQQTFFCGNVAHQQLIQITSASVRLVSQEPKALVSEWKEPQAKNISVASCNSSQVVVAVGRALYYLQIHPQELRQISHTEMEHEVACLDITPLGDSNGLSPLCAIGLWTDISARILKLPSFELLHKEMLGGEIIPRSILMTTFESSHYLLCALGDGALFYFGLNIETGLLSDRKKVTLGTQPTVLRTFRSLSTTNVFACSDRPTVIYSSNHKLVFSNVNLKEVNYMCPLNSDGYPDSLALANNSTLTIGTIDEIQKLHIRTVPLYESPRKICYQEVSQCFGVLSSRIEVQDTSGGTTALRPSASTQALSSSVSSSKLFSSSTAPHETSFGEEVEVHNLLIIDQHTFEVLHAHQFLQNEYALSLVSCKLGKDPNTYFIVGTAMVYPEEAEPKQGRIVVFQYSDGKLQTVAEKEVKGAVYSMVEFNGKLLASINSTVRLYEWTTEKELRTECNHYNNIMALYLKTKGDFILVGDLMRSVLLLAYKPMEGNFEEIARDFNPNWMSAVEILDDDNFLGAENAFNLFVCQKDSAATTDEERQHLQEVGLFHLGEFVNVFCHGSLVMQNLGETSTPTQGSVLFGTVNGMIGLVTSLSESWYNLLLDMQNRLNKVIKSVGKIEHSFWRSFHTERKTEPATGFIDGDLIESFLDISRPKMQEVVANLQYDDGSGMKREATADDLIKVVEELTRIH
T2 sequence (Q9NYV4 713-1052 K965R): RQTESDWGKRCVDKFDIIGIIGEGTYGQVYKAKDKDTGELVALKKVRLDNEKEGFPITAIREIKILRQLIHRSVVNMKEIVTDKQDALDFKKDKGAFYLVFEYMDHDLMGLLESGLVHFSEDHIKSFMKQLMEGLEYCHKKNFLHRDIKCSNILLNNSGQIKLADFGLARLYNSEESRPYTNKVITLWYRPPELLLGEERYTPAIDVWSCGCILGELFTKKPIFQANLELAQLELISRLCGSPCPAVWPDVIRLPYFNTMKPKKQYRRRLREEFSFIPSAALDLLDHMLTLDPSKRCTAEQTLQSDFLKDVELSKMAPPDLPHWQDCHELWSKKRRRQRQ
T2 sequence (O75909 1-267 partner): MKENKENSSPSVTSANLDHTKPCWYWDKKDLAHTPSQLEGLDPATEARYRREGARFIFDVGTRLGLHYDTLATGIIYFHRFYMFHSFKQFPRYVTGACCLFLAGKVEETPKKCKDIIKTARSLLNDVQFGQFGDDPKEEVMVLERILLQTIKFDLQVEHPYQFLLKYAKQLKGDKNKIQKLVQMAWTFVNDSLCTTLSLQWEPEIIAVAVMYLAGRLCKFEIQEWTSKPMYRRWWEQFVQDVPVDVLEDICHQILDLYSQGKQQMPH
T2 sequence (Q16531 whole entry): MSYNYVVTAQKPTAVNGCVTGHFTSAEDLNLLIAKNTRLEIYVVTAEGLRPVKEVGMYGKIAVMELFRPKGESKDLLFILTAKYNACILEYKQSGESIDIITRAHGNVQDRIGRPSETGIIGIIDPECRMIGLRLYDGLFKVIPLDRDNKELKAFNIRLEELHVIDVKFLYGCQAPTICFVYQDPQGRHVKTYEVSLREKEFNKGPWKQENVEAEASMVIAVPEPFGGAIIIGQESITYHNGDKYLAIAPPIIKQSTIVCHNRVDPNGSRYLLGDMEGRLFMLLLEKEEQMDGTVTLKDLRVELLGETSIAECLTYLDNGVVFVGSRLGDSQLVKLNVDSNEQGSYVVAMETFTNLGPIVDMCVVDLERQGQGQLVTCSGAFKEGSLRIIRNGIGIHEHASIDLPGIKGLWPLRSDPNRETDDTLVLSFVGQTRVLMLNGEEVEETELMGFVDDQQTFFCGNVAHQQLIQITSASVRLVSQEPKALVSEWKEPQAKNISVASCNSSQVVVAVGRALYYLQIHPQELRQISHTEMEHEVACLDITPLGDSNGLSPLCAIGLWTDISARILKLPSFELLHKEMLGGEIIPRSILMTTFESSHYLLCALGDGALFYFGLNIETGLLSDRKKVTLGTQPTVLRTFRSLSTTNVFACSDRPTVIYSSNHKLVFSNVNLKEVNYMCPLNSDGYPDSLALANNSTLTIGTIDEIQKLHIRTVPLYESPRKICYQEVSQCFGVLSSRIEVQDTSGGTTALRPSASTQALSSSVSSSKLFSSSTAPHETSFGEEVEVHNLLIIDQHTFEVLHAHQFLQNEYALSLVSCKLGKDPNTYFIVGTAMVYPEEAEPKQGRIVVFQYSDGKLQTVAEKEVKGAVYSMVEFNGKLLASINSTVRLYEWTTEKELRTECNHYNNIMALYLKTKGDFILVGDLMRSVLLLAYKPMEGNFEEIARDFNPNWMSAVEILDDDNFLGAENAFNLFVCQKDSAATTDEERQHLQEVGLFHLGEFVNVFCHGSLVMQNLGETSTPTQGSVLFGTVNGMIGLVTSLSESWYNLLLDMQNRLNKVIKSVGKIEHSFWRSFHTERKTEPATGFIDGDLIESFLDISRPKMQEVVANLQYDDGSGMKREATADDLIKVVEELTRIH
Chain of CDK12–cyclin K (Q9NYV4 713-1052): as the sequence (Q9NYV4 713-1052 K965R) above, with R253K counted along it
Chain of CDK12–cyclin K (O75909 1-267 partner limits assumed): as the sequence (O75909 1-267 partner) above

## Cn1cc(-n2cnc3c(NCc4nc5cc(Cl)c(Cl)cc5[nH]4)nc(N4CCOCC4)nc32)cn1 [SR-4835]
CDK13; label-free quantitative MS, replicate values
  CDK13 peptide count: 281.229 and 215.265
CDK13; normalised to DMSO = 1, replicate values
  CDK13 peptide count (DMSO-normalised): 0.4184 and 0.3308
CDK12–cyclin K and DDB1; compound concentration 0.468 nM
  TR-FRET signal: 0.24 and 0.2487 and 0.176 and 0.1833 and 0.1905 and 0.1902
CDK12–cyclin K and DDB1; compound concentration 0.468 nM, raw replicate titration data
  TR-FRET signal at compound concentration 0.468 nM: 0.24 and 0.2487 and 0.176 and 0.1833 and 0.1905 and 0.1902
CDK12–cyclin K and DDB1; compound concentration 2.16 nM
  TR-FRET signal: 0.2823 and 0.3111 and 0.2192 and 0.2275 and 0.225 and 0.234
CDK12–cyclin K and DDB1; compound concentration 2.16 nM, raw replicate titration data
  TR-FRET signal at compound concentration 2.16 nM: 0.2823 and 0.3111 and 0.2192 and 0.2275 and 0.225 and 0.234
CDK12–cyclin K and DDB1; compound concentration 3.6 nM
  TR-FRET signal: 0.3779 and 0.4354 and 0.3063 and 0.3176 and 0.3203 and 0.3168
CDK12–cyclin K and DDB1; compound concentration 3.6 nM, raw replicate titration data
  TR-FRET signal at compound concentration 3.6 nM: 0.3779 and 0.4354 and 0.3063 and 0.3176 and 0.3203 and 0.3168
CDK12–cyclin K and DDB1; compound concentration 7.92001 nM
  TR-FRET signal: 0.6106 and 0.7496 and 0.4912 and 0.5419 and 0.5567 and 0.5439
CDK12–cyclin K and DDB1; compound concentration 7.92001 nM, raw replicate titration data
  TR-FRET signal at compound concentration 7.92001 nM: 0.6106 and 0.7496 and 0.4912 and 0.5419 and 0.5567 and 0.5439
CDK12–cyclin K and DDB1; compound concentration 15.84 nM
  TR-FRET signal: 1.0796 and 1.304 and 0.9239 and 1.0376 and 1.022 and 1.028
CDK12–cyclin K and DDB1; compound concentration 15.84 nM, raw replicate titration data
  TR-FRET signal at compound concentration 15.84 nM: 1.0796 and 1.304 and 0.9239 and 1.0376 and 1.022 and 1.028
CDK12–cyclin K and DDB1; compound concentration 30.96 nM
  TR-FRET signal: 1.682 and 1.792 and 1.613 and 1.69 and 1.622 and 1.648
CDK12–cyclin K and DDB1; compound concentration 30.96 nM, raw replicate titration data
  TR-FRET signal at compound concentration 30.96 nM: 1.682 and 1.792 and 1.613 and 1.69 and 1.622 and 1.648
CDK12–cyclin K and DDB1; compound concentration 62.6401 nM
  TR-FRET signal: 1.888 and 1.962 and 1.877 and 1.886 and 1.857 and 1.865
CDK12–cyclin K and DDB1; compound concentration 62.6401 nM, raw replicate titration data
  TR-FRET signal at compound concentration 62.6401 nM: 1.888 and 1.962 and 1.877 and 1.886 and 1.857 and 1.865
CDK12–cyclin K and DDB1; compound concentration 125.28 nM
  TR-FRET signal: 1.977 and 2.1 and 1.914 and 1.988 and 1.925 and 1.931
CDK12–cyclin K and DDB1; compound concentration 125.28 nM, raw replicate titration data
  TR-FRET signal at compound concentration 125.28 nM: 1.977 and 2.1 and 1.914 and 1.988 and 1.925 and 1.931
CDK12–cyclin K and DDB1; compound concentration 244.8 nM
  TR-FRET signal: 2.037 and 2.154 and 1.951 and 1.963 and 1.955 and 1.942
CDK12–cyclin K and DDB1; compound concentration 244.8 nM, raw replicate titration data
  TR-FRET signal at compound concentration 244.8 nM: 2.037 and 2.154 and 1.951 and 1.963 and 1.955 and 1.942
CDK12–cyclin K and DDB1; compound concentration 993.601 nM
  TR-FRET signal: 2.0169 and 2.142 and 1.9225 and 1.946 and 1.977 and 1.949
CDK12–cyclin K and DDB1; compound concentration 993.601 nM, raw replicate titration data
  TR-FRET signal at compound concentration 993.601 nM: 2.0169 and 2.142 and 1.9225 and 1.946 and 1.977 and 1.949
CDK12–cyclin K and DDB1; compound concentration 2001.6 nM
  TR-FRET signal: 2.032 and 2.062 and 1.95 and 1.938 and 1.928 and 1.943
CDK12–cyclin K and DDB1; compound concentration 2001.6 nM, raw replicate titration data
  TR-FRET signal at compound concentration 2001.6 nM: 2.032 and 2.062 and 1.95 and 1.938 and 1.928 and 1.943
CDK12–cyclin K; compound 0.038147 nM, series r13
  Lanthascreen raw signal, sheet CDK12: 0.01046 and 0.009983
CDK12–cyclin K; compound 0.038147 nM, series r37
  Lanthascreen raw signal, sheet CDK12: 0.01351 and 0.01182
CDK12–cyclin K; compound 0.038147 nM, series r49
  Lanthascreen raw signal, sheet CDK12: 0.007647 and 0.00729
CDK12–cyclin K; compound 0.152588 nM, series r13
  Lanthascreen raw signal, sheet CDK12: 0.009614 and 0.01041
CDK12–cyclin K; compound 0.152588 nM, series r37
  Lanthascreen raw signal, sheet CDK12: 0.01248 and 0.01201
CDK12–cyclin K; compound 0.152588 nM, series r49
  Lanthascreen raw signal, sheet CDK12: 0.009969 and 0.01054
CDK12–cyclin K; compound 0.610352 nM, series r13
  Lanthascreen raw signal, sheet CDK12: 0.01066 and 0.01021
CDK12–cyclin K; compound 0.610352 nM, series r37
  Lanthascreen raw signal, sheet CDK12: 0.01219 and 0.01189
CDK12–cyclin K; compound 0.610352 nM, series r49
  Lanthascreen raw signal, sheet CDK12: 0.01058 and 0.01056
CDK12–cyclin K; compound 1.02544 nM, series r1
  Lanthascreen raw signal, sheet CDK12: 0.008952 and 0.009485
CDK12–cyclin K; compound 3.15521 nM, series r1
  Lanthascreen raw signal, sheet CDK12: 0.008128 and 0.008332
CDK12–cyclin K; compound 9.46563 nM, series r1
  Lanthascreen raw signal, sheet CDK12: 0.008981 and 0.006574
CDK12–cyclin K; compound 9.76563 nM, series r13
  Lanthascreen raw signal, sheet CDK12: 0.009284 and 0.009045
CDK12–cyclin K; compound 9.76563 nM, series r37
  Lanthascreen raw signal, sheet CDK12: 0.009426 and 0.01016
CDK12–cyclin K; compound 9.76563 nM, series r49
  Lanthascreen raw signal, sheet CDK12: 0.009267 and 0.008766
CDK12–cyclin K; compound 31.5521 nM, series r1
  Lanthascreen raw signal, sheet CDK12: 0.007535 and 0.008876
CDK12–cyclin K; compound 39.0625 nM, series r13
  Lanthascreen raw signal, sheet CDK12: 0.008439 and 0.008567
CDK12–cyclin K; compound 39.0625 nM, series r37
  Lanthascreen raw signal, sheet CDK12: 0.009028 and 0.008999
CDK12–cyclin K; compound 39.0625 nM, series r49
  Lanthascreen raw signal, sheet CDK12: 0.00795 and 0.007253
CDK12–cyclin K; compound 99.3891 nM, series r1
  Lanthascreen raw signal, sheet CDK12: 0.006758 and 0.007046
CDK12–cyclin K; compound 156.25 nM, series r13
  Lanthascreen raw signal, sheet CDK12: 0.008038 and 0.008664
CDK12–cyclin K; compound 156.25 nM, series r37
  Lanthascreen raw signal, sheet CDK12: 0.006404 and 0.007018
CDK12–cyclin K; compound 156.25 nM, series r49
  Lanthascreen raw signal, sheet CDK12: 0.006482 and 0.006079
CDK12–cyclin K; compound 315.521 nM, series r1
  Lanthascreen raw signal, sheet CDK12: 0.006236 and 0.005797
CDK12–cyclin K; compound 625 nM, series r13
  Lanthascreen raw signal, sheet CDK12: 0.008328 and 0.007759
CDK12–cyclin K; compound 625 nM, series r37
  Lanthascreen raw signal, sheet CDK12: 0.006628 and 0.006561
CDK12–cyclin K; compound 625 nM, series r49
  Lanthascreen raw signal, sheet CDK12: 0.005855 and 0.00595
CDK12–cyclin K; compound 2500 nM, series r13
  Lanthascreen raw signal, sheet CDK12: 0.007658 and 0.007398
CDK12–cyclin K; compound 2500 nM, series r37
  Lanthascreen raw signal, sheet CDK12: 0.006178 and 0.006049
CDK12–cyclin K; compound 2500 nM, series r49
  Lanthascreen raw signal, sheet CDK12: 0.005776 and 0.005723
CDK12–cyclin K; compound 3155.21 nM, series r1
  Lanthascreen raw signal, sheet CDK12: 0.006081 and 0.005159
CDK12–cyclin K; compound 10000 nM, series r13
  Lanthascreen raw signal, sheet CDK12: 0.007533 and 0.00783
CDK12–cyclin K; compound 10000 nM, series r37
  Lanthascreen raw signal, sheet CDK12: 0.005313 and 0.005643
CDK12–cyclin K; compound 10000 nM, series r49
  Lanthascreen raw signal, sheet CDK12: 0.005957 and 0.005417
CDK12–cyclin K; compound 10002 nM, series r1
  Lanthascreen raw signal, sheet CDK12: 0.004606 and 0.00667
